How the values were obtained:
Format in all cases: functional, cell-based
[1] = tested on: NCI-H460; assay: Growth inhibition of human NCI-H460 cells by MTT assay
[2] = tested on: MCF7; assay: Growth inhibition of human MCF7 cells by MTT assay
[3] = tested on: SF-268; assay: Growth inhibition of human SF268 cells by MTT assay

In the case of `O=P1(C(c2ccc(Cl)cc2)P2(=O)Oc3ccccc3CN2c2ccc(F)c(Cl)c2)Oc2ccccc2CN1c1ccc(F)c(Cl)c1` (stereo unspecified), the IC50 [1] is reported as 10.9 µM, the IC50 [2] is reported as 14.3 µM and the IC50 [3] is reported as 11.2 µM.

`C/C=C/C(P1(=O)Oc2ccccc2CN1c1ccc(F)c(Cl)c1)P1(=O)Oc2ccccc2CN1c1ccc(F)c(Cl)c1` (stereo unspecified) was tested, and the IC50 [1] was 8.22 µM, the IC50 [2] was 11.3 µM and the IC50 [3] was 8.5 µM.

With `O=P1(C(/C=C/c2ccccc2)P2(=O)Oc3ccccc3CN2c2ccc(F)c(Cl)c2)Oc2ccccc2CN1c1ccc(F)c(Cl)c1` (stereo unspecified) the IC50 [1] was 11.8 µM, the IC50 [2] was 13.1 µM and the IC50 [3] was 11.6 µM.

`Cc1ccc(C(P2(=O)OCC(C)(C)CO2)P2(=O)OCC(C)(C)CO2)cc1` was tested, and the IC50 [1] was over 1000 µM, the IC50 [2] was over 1000 µM and the IC50 [3] was over 1000 µM.

In the case of `Cc1ccc(C(P2(=O)Oc3ccccc3CN2c2ccc(F)c(Cl)c2)P2(=O)Oc3ccccc3CN2c2ccc(F)c(Cl)c2)cc1` (stereo unspecified), the IC50 [1] is reported as 9 µM, the IC50 [2] is reported as 12.7 µM and the IC50 [3] is reported as 7.69 µM.

`O=P1(C(c2ccccc2)P2(=O)Oc3ccccc3CN2c2ccc(F)c(Cl)c2)Oc2ccccc2CN1c1ccc(F)c(Cl)c1` (stereo unspecified) gave an IC50 [1] of 3.77 µM, an IC50 [2] of 4.05 µM and an IC50 [3] of 2.8 µM.

`C/C=C/C(P1(=O)OCC(C)(C)CO1)P1(=O)OCC(C)(C)CO1` showed an IC50 [1] of over 1000 µM, an IC50 [2] of over 1000 µM and an IC50 [3] of over 1000 µM.

For `CC1(C)COP(=O)(C(c2ccccc2)P2(=O)OCC(C)(C)CO2)OC1`, the IC50 [1] was over 1000 µM, the IC50 [2] was over 1000 µM and the IC50 [3] was over 1000 µM.

For `CC1(C)COP(=O)(C(c2ccc(Cl)cc2)P2(=O)OCC(C)(C)CO2)OC1`, the IC50 [1] was over 1000 µM, the IC50 [2] was over 1000 µM and the IC50 [3] was over 1000 µM.

With `CC1(C)COP(=O)(C(c2cccc([N+](=O)[O-])c2)P2(=O)OCC(C)(C)CO2)OC1` the IC50 [1] was over 1000 µM, the IC50 [2] was over 1000 µM and the IC50 [3] was over 1000 µM.

Work on `CCN(CC)c1ccc(C(P2(=O)OCC(C)(C)CO2)P2(=O)OCC(C)(C)CO2)cc1` yielded an IC50 [1] of over 1000 µM, an IC50 [2] of over 1000 µM and an IC50 [3] of over 1000 µM.

`CC1(C)COP(=O)(C(c2ccncc2)P2(=O)OCC(C)(C)CO2)OC1` gave an IC50 [1] of over 1000 µM, an IC50 [2] of over 1000 µM and an IC50 [3] of over 1000 µM.

`NP(=O)(O)C(c1ccc(Cl)cc1)P(N)(=O)O` (stereo unspecified) was tested, and the IC50 [1] was 75.2 µM, the IC50 [2] was 71.3 µM and the IC50 [3] was 90.4 µM.

Molecule `CCN(CC)c1ccc(C(P2(=O)Oc3ccccc3CN2c2ccc(F)c(Cl)c2)P2(=O)Oc3ccccc3CN2c2ccc(F)c(Cl)c2)cc1` (stereo unspecified) has an IC50 [1] of 5.69 µM, an IC50 [2] of 5.71 µM and an IC50 [3] of 3.85 µM.

Work on `O=[N+]([O-])c1cccc(C(P2(=O)Oc3ccccc3CN2c2ccc(F)c(Cl)c2)P2(=O)Oc3ccccc3CN2c2ccc(F)c(Cl)c2)c1` (stereo unspecified) yielded an IC50 [1] of 13 µM, an IC50 [2] of 17.6 µM and an IC50 [3] of 10.7 µM.

`O=P1(C(c2ccncc2)P2(=O)Oc3ccccc3CN2c2ccc(F)c(Cl)c2)Oc2ccccc2CN1c1ccc(F)c(Cl)c1` (stereo unspecified) gave an IC50 [1] of 12.3 µM, an IC50 [2] of 11.5 µM and an IC50 [3] of 11.7 µM.

`CC1(C)COP(=O)(C(/C=C/c2ccccc2)P2(=O)OCC(C)(C)CO2)OC1` gave an IC50 [1] of over 1000 µM, an IC50 [2] of over 1000 µM and an IC50 [3] of over 1000 µM.

Source: ChEMBL document CHEMBL1149807, “Synthesis and anticancer activity of new class of bisphosphonates/phosphanamidates” (Eur J Med Chem, 2008)
